What was measured:
TrkA = TrkA increase by THPI-244 analogs; assay type: cell-based
Source text: (§1) The following table illustrates Chemical structures and properties of THPI-244 analogs selected out of 37 analogs, and each have significant sAPPα increasing activity. Toxicity is the minimum dose for toxicity.

human primary neurons [1] = experiment: Neurite outgrowth, Sholl analysis of dendritic intersections; assay type: cell-based; details: 2DIV until 6DIV
Source text: (4). The most important property of THPI-244 is its ability to increase neurite outgrowth and dendritic intersections in human primary neurons. Since both TrkA and sAPPα promote neuron growth and provide trophic support, we tested whether treatment of human primary neurons with THPI-244 induces neurite outgrowth. […] Considering an enormous potential for such an excellent results in human neurons, we did systematic analysis by also treating neurons in the presence of TrkA inhibitor to verify if the increased neurite outgrowth is mediated by TrkA receptor. Sholl analysis using ImageJ software of individual neurons (at least 30 per group) immunostained for MAP2 antibody confirmed our initial findings. […] This confirmed that THPI-244 increases TrkA protein levels which has vital role in regulating neuritic outgrowth.

[2] = test system: sAPPα release from 7WD10 cells; experiment: AlphaLISA sAPPα release assay (pilot screen); assay type: cell-based; details: 5 μM, 7WD10 cells, 24 h
Protocol: Pilot screen of AlphaLISA sAPPα release assay. 8 μL of assay media (DMEM supplemented with 10% FBS and 1× Penicillin/Streptomycin) containing 20,000 cells were added to all wells of the assay plate, except column 1 where only media was added. Plates were incubated for 4 h at 37° C., 5% CO2, 95% RH after which 80 nL of test compounds in DMSO or DMSO alone were added to respective wells using a pin tool device (VP Scientific, San Diego). After 24 h of incubation at 37° C., 5% CO2, 95% RH, sAPPα AlphaLISA beads were added in 10 μL of buffer, equilibrated for 1 h, and AlphaLISA signal was measured using a Biotek H4 Synergy microplate reader (Biotek Inc). Three parameters were calculated on a per-plate basis: (a) the signal-to-background ratio (S/B); (b) the coefficient for variation [CV; CV=(standard deviation/mean)×100)] for all compound test wells; and (c) the Z′-factor [31]. Nominally active compounds from the pilot screen were determined using mean plus 3 times the standard deviation (Mean+3SD) was used as the cut-off.

sAPPα [3] = experiment: Mouse brain lysate immunoblot, sAPPα; assay type: in vivo; details: i.p. 100 mg/kg for 5 days, brain lysates
Protocol: FIGS. 9.2A and B illustrate that THPI-244 increases TrkA and sAPPα in the mouse brain. FIG. 9.2A illustrates that THPI-244 was administered to mice by i.p. injections at 100 mg/kg body weight for 5 days and the brain lysates were subjected to immunoblots. Specific antibodies were used to detect TrkA and sAPPα. […] Data are mean±SEM, n=3*, p<0.05, ***, p<0.001.

[4] = test system: Aβ42 levels, NT2 cells stably expressing APP751; experiment: Aβ42 ELISA, NT2 stable cells; assay type: cell-based, human
Protocol: (§2) (5). To confirm the effect of THPI-244 on sAPPα levels in a neuronal cell line and by a tertiary assay, we exposed human Neuron-committed Teratocarcinoma cell line (NT2) stably expressing human APP751 to different concentrations of THPI-244 for 24 h and compared with that of Bryostatin, a classical activator of PKC known to stimulate sAPPα release. […] Levels of sAPPα were measured by ELISA using commercially available kit (cat #27734, IBL-America, Minneapolis, Minn., USA). […] Similar biphasic effect of Bryostatin was confirmed for Aβ42 also, measured again in NT2 stable cells by ELISA (cat # KHB3441, Life Technologies, Grand Island, N.Y., USA). Consistent with sAPPα, THPI-244 decreased Aβ42 levels dose-dependently starting from 50 nM (28%, p<0.05) to 2000 nM (64%, p<0.001) (n=4 independent experiments) (FIG. 1.7). Thus THPI-244 increased non-amyloidogenic processing of APP in NT2 cells.

[5] = test system: sAPPα release, NT2 cells stably expressing human APP751; experiment: sAPPα ELISA, NT2 cells expressing APP751; assay type: cell-based; details: 24 h
Protocol: as §2

TrkA receptors = TrkA receptors (Homo sapiens, UniProt P04629); experiment: Octet Red label-free binding; details: biotinylated TrkA on SSA biosensors
TrkA receptors, sequence (P04629 33-796): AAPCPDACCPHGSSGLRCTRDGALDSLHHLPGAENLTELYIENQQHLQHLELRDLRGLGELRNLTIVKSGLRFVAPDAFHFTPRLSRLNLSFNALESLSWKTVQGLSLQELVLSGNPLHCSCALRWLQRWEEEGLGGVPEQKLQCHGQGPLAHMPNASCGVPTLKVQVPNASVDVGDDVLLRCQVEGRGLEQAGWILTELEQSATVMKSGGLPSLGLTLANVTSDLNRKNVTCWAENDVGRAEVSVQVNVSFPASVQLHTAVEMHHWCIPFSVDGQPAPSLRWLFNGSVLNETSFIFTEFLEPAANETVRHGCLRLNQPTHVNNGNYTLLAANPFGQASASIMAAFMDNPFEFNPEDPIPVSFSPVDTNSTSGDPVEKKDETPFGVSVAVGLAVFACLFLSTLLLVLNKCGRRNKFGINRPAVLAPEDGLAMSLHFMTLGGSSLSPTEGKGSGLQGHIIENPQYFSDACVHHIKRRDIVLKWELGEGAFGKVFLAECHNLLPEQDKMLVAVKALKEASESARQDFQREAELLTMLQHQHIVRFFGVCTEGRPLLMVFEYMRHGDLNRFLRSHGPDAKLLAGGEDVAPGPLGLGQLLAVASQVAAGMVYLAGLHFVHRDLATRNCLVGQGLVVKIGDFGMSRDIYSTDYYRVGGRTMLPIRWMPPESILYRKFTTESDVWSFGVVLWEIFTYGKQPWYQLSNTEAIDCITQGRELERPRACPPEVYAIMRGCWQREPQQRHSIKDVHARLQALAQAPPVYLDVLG
Protocol: FIGS. 9.1A and B illustrate that THPI-244 directly binds TrkA receptors as determined by label-free, real-time Octet Red detection system. FIG. 9.1A illustrates that biotinylated TrkA was loaded on to super-streptavidin (SSA) biosensors and after obtaining the baseline, were incubated with THPI-244 which dose-dependently bound TrkA receptors (Association). Incubation with kinetics buffer rapidly dissociated the binding.

human primary neurons [6] = experiment: MTT cytotoxicity, human primary neurons; assay type: cell-based
Source text: (4). Toxicity is another crucial limitation for successful drug development as evidenced by recent failure of γ-secretase inhibitors at the clinical trials due to cytotoxicity (Cole, S L and Vassar, R, 2007, Mol. Neurodeg. 2, 22-47; Doody R S, et al. 2013. N. Eng. J. Med. 369, 341-350). Therefore we measured cytotoxicity by very sensitive MTT assay as described previously (Hayes, C D., et al. 2013, BMC Medicine. 26, 11.81; 23; Hayes, C D., et al., 2012, PLoS One 7, e45841) in human primary neurons obtained from a commercial source (cat #1520, ScienCell, Carlsbad, Calif., USA) and fibroblasts derived directly from A D patients (cat# AG06263C, Coriell Institute Cell repository supported by NINDS, NIH). […] We directly used human neurons for toxicity studies so as to reduce the chances of future failure at a later stage due to toxicity.

sAPPα [7] = experiment: sAPPα increasing activity of THPI-244 analogs; assay type: cell-based
Source text: as §1

**Q.** `O=C(Cc1ccccc1)N[C@H](CNc1nc(CN2CCN(C(=O)Cc3ccccc3)CC2)cs1)c1ccccc1` [THPI-244] was tested. Which “% TrkA ↑” value (TrkA) did it give?
**A.** Its value is 99%.

**Q.** And the “number of dendritic intersections” value (human primary neurons [1]; Sholl analysis)?
**A.** The value was “highly significant increase”.

**Q.** What about the “number of dendritic intersections” value (human primary neurons [1]; THPI-244 with TrkA inhibitor) of the same compound?
**A.** Its value is “almost completely prevented the increased intersections”.

**Q.** What about the “increase of Alpha signal (sAPPα release)” value [2] of the same compound?
**A.** The value was ~2 fold.

**Q.** And the “increase of sAPPα” value (sAPPα [3])?
**A.** The value was 89%.

**Q.** What about the “decrease of Aβ42 levels” value ([4]; 50 nM) of the same compound?
**A.** The value was 28%.

**Q.** What about the “decrease of Aβ42 levels” value ([4]; 2000 nM) of the same compound?
**A.** Its value is 64%.

**Q.** And the “concentration from which Aβ42 decrease is significant” value ([4]; ELISA)?
**A.** Its value is 50 nM.

**Q.** And the “concentration from which sAPPα increase is significant” value [5]?
**A.** The value was 50 nM.

**Q.** And the Kd (TrkA receptors)?
**A.** The Kd was 5.2 µM.

**Q.** What about the “concentration from which cytotoxicity is significant” value (human primary neurons [6]; MTT, 24 h exposure, human primary neurons) of the same compound?
**A.** The value was 40 µM.

**Q.** And the therapeutic window (human primary neurons [6]; human primary neurons and AD fibroblasts)?
**A.** Its therapeutic window is 800.

**Q.** And the “% sAPPα ↑” value (sAPPα [7])?
**A.** Its value is 257%.

Source: US20150315179A1, “COMPOUNDS AND METHODS OF TREATING NEUROLOGICAL DISORDERS” (Torrey Pines Institute For Molecular Studies, priority 2014, published 2015)
